Blank lines part the entries; values can stand above or below the compound they belong to.
Key:
[1] = Inhibition of CDK2/Cyclin E (unknown origin) in the presence of ATP; set-up: species or system Homo sapiens
[2] = target: T1, Protein cereblon/Tyrosine-protein kinase BTK (Homo sapiens, UniProt Q06187+Q96SW2); test: PROTAC activity at CRBN/BTK in human NAMALVA cells assessed as decrease in BTK level incubated for 24 hrs by Western blot analysis; format: cell-based
Target sequence in this assay (Q06187 whole entry): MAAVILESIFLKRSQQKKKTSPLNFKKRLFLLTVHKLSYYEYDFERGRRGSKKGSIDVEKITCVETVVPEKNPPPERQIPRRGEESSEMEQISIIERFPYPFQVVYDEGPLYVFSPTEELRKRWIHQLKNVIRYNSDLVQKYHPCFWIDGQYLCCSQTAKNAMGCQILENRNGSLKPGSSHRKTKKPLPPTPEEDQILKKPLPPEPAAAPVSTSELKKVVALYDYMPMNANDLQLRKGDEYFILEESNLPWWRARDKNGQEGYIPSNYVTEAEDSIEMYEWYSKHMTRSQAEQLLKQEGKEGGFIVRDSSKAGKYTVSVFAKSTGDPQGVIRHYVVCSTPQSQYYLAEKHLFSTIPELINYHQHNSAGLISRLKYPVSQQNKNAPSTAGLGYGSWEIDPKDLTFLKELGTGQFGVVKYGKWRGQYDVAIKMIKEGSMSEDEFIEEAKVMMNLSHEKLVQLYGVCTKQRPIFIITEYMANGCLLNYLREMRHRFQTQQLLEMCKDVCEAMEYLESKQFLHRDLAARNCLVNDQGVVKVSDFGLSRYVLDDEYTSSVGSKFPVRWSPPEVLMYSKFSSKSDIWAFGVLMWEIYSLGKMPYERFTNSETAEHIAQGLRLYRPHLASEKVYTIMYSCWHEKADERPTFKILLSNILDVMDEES
Target sequence in this assay (Q96SW2 whole entry): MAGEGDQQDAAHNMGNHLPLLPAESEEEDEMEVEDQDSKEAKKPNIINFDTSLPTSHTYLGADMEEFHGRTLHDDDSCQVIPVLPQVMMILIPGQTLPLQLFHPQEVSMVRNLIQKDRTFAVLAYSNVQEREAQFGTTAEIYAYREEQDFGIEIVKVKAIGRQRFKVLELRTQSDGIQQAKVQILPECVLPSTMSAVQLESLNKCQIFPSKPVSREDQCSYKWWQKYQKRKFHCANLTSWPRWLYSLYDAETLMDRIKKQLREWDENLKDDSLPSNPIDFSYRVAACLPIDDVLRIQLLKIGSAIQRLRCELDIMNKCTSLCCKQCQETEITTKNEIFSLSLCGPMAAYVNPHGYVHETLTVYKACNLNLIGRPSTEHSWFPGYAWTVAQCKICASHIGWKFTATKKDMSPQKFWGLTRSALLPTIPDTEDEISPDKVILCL

[3] = target: T1, Protein cereblon/Tyrosine-protein kinase BTK; test: PROTAC activity at CRBN/BTK in human NAMALVA cells assessed as decrease in BTK level by measuring maximal efficacy incubated for 24 hrs by Western blot analysis relative to control; format: cell-based
Target sequence in this assay (Q06187 2-659 limits assumed): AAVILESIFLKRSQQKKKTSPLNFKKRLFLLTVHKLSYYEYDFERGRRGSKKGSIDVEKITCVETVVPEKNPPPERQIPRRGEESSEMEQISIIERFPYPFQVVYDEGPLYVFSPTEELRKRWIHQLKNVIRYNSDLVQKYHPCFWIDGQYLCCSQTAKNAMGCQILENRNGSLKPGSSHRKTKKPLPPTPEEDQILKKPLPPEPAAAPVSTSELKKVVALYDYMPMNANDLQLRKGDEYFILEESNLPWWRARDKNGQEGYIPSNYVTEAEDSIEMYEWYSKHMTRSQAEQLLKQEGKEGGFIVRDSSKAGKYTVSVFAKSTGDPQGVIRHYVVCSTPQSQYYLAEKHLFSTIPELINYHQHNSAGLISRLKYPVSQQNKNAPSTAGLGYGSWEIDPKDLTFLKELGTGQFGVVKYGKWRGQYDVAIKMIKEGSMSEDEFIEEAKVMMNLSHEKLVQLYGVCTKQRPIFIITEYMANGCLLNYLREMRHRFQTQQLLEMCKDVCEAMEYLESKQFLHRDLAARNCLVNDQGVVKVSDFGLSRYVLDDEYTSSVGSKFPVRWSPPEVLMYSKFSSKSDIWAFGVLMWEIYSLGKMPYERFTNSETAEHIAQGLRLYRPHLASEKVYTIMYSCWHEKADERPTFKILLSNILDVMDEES
Target sequence in this assay (Q96SW2 whole entry partner): as the sequence (Q96SW2 whole entry) above

[4] = target: Protein cereblon/Tyrosine-protein kinase BTK (Homo sapiens, UniProt Q06187+Q96SW2, C481S); test: PROTAC activity at CRBN/BTK C481S mutant in human Ramos cells assessed as decrease in BTK C481S level incubated for 48 hrs by immunoblot analysis; format: cell-based
[5] = target: T2, Tyrosine-protein kinase BTK (Homo sapiens, UniProt Q06187); test: Inhibition of BTK (unknown origin) in the presence of ATP
Ramos [6] = test: Antiproliferative activity against human Ramos cells assessed as reduction in cell viability incubated for 72 hrs by CCK-8 assay
Raji = test: Antiproliferative activity against human Raji cells assessed as reduction in cell viability incubated for 72 hrs by CCK-8 assay
NAMALVA = test: Antiproliferative activity against human NAMALVA cells assessed as reduction in cell viability incubated for 72 hrs by CCK-8 assay
[7] = target: Tyrosine-protein kinase Lck (Homo sapiens, UniProt P06239); test: Inhibition of LCK (unknown origin)
Ramos [8] = test: Growth inhibition of human Ramos cells; format: functional
U2932 = test: Growth inhibition of human U2932 cells; format: functional
[9] = target: T3, Tyrosine-protein kinase JAK3 (Homo sapiens, UniProt P52333); test: Inhibition of JAK3 (unknown origin)
T3 sequence (P52333 whole entry): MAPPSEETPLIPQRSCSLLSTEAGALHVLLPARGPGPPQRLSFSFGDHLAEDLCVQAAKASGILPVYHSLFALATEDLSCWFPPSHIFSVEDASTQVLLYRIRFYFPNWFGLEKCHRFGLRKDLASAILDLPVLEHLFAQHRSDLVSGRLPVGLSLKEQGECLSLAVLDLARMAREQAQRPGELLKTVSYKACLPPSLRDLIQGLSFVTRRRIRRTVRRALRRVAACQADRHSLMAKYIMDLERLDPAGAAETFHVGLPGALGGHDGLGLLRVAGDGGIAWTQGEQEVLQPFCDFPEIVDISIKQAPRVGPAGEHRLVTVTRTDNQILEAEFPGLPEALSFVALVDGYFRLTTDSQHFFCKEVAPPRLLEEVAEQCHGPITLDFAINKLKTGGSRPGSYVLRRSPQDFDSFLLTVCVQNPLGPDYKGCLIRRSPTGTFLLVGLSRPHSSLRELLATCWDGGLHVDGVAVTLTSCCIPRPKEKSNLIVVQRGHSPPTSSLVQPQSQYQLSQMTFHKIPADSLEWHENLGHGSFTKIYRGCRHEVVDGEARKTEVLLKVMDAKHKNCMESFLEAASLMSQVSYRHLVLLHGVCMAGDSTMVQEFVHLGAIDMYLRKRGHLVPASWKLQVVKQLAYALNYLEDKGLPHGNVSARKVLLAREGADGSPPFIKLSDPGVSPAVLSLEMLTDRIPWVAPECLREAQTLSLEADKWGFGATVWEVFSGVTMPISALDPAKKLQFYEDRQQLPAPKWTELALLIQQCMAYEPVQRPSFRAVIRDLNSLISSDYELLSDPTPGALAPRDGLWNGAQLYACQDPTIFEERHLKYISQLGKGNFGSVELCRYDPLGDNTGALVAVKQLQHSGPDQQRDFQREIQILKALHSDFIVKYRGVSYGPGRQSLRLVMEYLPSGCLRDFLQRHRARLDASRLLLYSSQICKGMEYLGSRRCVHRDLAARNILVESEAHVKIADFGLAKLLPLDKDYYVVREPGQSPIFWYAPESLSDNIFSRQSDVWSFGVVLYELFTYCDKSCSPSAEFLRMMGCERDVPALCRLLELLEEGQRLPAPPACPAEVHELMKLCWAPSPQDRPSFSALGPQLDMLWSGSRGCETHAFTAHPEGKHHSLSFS

[10] = target: Epidermal growth factor receptor (Homo sapiens, UniProt P00533); test: Inhibition of EGFR (unknown origin)
[11] = target: T2, Tyrosine-protein kinase BTK; test: Inhibition of BTK (unknown origin)
Maver1 = test: Antiproliferative activity against human MAVER-1 cells assessed as reduction in cell viability incubated for 72 hrs by CellTiter Glo luminescence assay; settings: Maver1, 72 h
JeKo-1 = test: Antiproliferative activity against BTK knockout human JeKo-1 cells assessed as reduction in cell viability incubated for 72 hrs by CellTiter Glo luminescence assay; settings: JeKo-1, 72 h
[12] = target: T4, Receptor-type tyrosine-protein kinase FLT3 (Homo sapiens, UniProt P36888); test: Inhibition of FLT3 (unknown origin)
T4 sequence (P36888 whole entry): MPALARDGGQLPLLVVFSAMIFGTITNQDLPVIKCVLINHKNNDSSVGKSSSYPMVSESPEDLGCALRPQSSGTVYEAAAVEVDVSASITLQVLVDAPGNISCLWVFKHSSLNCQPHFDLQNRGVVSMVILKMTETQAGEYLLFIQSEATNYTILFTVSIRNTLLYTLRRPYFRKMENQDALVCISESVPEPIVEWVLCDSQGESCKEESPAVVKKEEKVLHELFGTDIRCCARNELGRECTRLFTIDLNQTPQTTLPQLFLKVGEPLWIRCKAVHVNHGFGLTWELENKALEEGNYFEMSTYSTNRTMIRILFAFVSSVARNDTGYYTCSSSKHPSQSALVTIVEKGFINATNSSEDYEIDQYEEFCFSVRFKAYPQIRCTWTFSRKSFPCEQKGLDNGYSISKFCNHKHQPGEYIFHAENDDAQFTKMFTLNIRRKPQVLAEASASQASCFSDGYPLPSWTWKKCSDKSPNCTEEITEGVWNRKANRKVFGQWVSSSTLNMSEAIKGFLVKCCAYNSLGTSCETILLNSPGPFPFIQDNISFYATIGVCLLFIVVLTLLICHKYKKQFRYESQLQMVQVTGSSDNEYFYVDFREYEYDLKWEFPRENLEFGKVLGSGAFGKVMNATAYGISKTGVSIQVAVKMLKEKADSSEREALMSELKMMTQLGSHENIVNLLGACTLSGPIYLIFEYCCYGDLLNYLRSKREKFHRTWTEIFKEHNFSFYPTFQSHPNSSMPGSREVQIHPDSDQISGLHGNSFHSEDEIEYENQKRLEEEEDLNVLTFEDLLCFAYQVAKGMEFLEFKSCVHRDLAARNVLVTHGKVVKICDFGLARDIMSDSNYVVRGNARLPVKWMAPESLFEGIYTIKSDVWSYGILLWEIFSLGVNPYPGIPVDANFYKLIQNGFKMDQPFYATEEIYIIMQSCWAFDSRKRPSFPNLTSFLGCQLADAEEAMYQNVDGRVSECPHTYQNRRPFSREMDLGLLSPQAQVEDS

[13] = target: T1, Protein cereblon/Tyrosine-protein kinase BTK; test: PROTAC activity at CRBN/BTK in human MINO cells assessed as decrease in BTK level by measuring maximal efficacy incubated for 24 hrs by Western blot analysis relative to control; format: cell-based
Target sequence in this assay (Q06187 2-659 limits assumed): as the sequence (Q06187 2-659 limits assumed) above
Target sequence in this assay (Q96SW2 whole entry partner): as the sequence (Q96SW2 whole entry) above

[14] = target: T1, Protein cereblon/Tyrosine-protein kinase BTK; test: PROTAC activity at CRBN/BTK in human MINO cells assessed as decrease in BTK level incubated for 24 hrs by Western blot analysis; format: cell-based
Target sequence in this assay (Q06187 whole entry): as the sequence (Q06187 whole entry) above
Target sequence in this assay (Q96SW2 whole entry): as the sequence (Q96SW2 whole entry) above

[15] = target: T2, Tyrosine-protein kinase BTK; test: Inhibition of BTK (unknown origin) incubated for 40 mins in the presence of ATP by scintillation based radiometric protein kinase assay
[16] = Antiproliferative activity against human MINO cells assessed as reduction in cell viability incubated for 72 hrs by CellTiter Glo luminescence assay
Z-138 = test: Antiproliferative activity against human Z138 cells assessed as reduction in cell viability incubated for 72 hrs by CellTiter Glo luminescence assay; settings: Z-138, 72 h

T2 sequence (Q06187 whole entry): as the sequence (Q06187 whole entry) above
Sequence of Protein cereblon/Tyrosine-protein kinase BTK (Homo sapiens, UniProt Q06187+Q96SW2, C481S) (Q06187 2-659 C481S limits assumed, stated change not applied): as the sequence (Q06187 2-659 limits assumed) above, with C480S counted along it
Sequence of Protein cereblon/Tyrosine-protein kinase BTK (Homo sapiens, UniProt Q06187+Q96SW2, C481S) (Q96SW2 whole entry, stated change not applied): as the sequence (Q96SW2 whole entry) above
Sequence of Tyrosine-protein kinase Lck (P06239 whole entry): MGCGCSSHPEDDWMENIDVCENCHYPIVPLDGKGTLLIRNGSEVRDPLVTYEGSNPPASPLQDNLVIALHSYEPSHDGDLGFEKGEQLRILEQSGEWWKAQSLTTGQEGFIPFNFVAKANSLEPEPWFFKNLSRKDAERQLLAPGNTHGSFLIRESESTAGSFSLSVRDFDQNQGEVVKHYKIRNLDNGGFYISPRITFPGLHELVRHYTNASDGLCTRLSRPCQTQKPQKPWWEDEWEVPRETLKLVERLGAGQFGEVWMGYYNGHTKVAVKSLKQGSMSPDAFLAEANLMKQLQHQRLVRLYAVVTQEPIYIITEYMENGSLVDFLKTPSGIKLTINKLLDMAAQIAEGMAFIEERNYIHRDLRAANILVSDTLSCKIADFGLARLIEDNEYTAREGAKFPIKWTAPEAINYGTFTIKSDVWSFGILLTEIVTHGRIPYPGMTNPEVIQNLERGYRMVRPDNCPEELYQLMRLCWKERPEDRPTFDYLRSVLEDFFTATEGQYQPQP
Sequence of Epidermal growth factor receptor (P00533 whole entry): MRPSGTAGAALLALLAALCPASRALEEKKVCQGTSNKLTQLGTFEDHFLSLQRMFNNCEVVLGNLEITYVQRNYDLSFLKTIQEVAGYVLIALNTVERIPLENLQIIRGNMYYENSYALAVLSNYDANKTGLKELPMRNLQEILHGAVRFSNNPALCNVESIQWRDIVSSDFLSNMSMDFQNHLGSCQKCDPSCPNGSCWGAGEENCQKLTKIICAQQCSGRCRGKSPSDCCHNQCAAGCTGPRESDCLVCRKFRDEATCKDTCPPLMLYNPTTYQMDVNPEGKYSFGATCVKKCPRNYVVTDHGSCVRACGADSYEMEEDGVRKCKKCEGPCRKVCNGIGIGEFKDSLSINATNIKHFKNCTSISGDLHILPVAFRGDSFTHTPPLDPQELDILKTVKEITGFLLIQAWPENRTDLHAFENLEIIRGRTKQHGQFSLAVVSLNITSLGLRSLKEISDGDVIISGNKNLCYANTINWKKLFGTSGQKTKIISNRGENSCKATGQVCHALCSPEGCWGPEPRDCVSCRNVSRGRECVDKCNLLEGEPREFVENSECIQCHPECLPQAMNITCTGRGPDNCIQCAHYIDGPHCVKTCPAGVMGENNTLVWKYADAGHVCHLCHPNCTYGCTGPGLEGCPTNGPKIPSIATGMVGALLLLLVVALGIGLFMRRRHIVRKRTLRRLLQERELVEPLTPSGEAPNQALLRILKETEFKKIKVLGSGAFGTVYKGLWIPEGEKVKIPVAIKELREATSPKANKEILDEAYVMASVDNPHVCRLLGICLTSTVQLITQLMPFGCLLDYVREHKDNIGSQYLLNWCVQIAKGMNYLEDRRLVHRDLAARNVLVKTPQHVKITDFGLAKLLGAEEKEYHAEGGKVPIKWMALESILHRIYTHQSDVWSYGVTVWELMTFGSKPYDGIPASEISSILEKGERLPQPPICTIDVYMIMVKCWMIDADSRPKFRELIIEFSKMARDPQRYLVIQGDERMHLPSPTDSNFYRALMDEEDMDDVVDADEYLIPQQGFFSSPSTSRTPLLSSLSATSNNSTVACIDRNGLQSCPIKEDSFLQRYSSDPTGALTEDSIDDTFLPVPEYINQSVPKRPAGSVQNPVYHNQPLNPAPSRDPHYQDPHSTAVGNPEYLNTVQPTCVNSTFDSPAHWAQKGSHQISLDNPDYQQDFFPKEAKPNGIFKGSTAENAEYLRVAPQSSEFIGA

Compound: CN1CCN(c2ccc(Nc3nc(Nc4ccc(F)c(F)c4)c4ncn(CC5CC5)c4n3)cc2)CC1
IC50 [1]: 18.5 µM

Compound: Nc1ncnc2c1c(-c1ccc(Oc3ccccc3)cc1)nn2[C@@H]1CCCN(C(=O)c2cn(CCOCCOCCOCCNc3cccc4c3C(=O)N(C3CCC(=O)NC3=O)C4=O)nn2)C1 (stereo not given in full)
EC50 [4]: 30 nM

Compound: CN1CCN(c2ccc(Nc3nc(Nc4cccc(F)c4)c4ncn(CC5CC5)c4n3)cc2)CC1
IC50 [5]: 660 nM

Compound: C=CC(=O)N1CCc2ccc(N3C(=O)CCc4cnc5ccc(-c6cnn(C)c6)cc5c43)cc21
GI50 (Ramos [8]): 370 nM | GI50 (U2932): 200 nM | IC50 [9]: 5.18 µM | IC50 [10]: 4.31 µM | IC50 [11]: 6.59 nM

Compound: Nc1ncnc2c1c(-c1ccc(Oc3ccccc3)nc1)nn2C1CCCN(C(=O)CCl)C1 (stereo not given)
IC50 (Maver1): 400 nM | IC50 (JeKo-1): 400 nM

Compound: CN1CCN(c2ccc(Nc3nc(Nc4ccc(F)cc4)c4ncn(CC5CC5)c4n3)cc2)CC1
IC50 [5]: 1300 nM

Compound: Cc1cnc(-c2ccc(-c3ccc(NC(=O)Nc4cccc(C(F)(F)F)c4)cc3F)c3c2C(=O)NC3)[nH]1
IC50 [12]: 80 nM

Compound: Nc1ncnc2c1c(-c1ccc(Oc3ccccc3)cc1)nn2C1CCCN(C(=O)CCCCCCCOCCOCCOCCOCCOc2cccc3c2C(=O)N(C2CCC(=O)NC2=O)C3=O)C1 (stereo not given)
Emax [13]: 97% | EC50 [14]: 2.2 nM

Further lines, with some results ahead:

EC50 [2]: 6.2 nM | Emax [3]: > 99%
Compound: Nc1ncnc2c1c(-c1ccc(Oc3ccccc3)cc1)nn2C1CCN(CCOCCOCC(=O)Nc2ccc3c(c2)C(=O)N(C2CCC(=O)NC2=O)C3=O)CC1 (stereo not given)

IC50 (Ramos [6]): 9.25 µM | IC50 (Raji): 4.37 µM
Compound: C=CC(=O)Nc1cccc(Nc2nc(Nc3ccc(Cn4cc(C)nc4CC)cc3)ncc2F)c1
IC50 (NAMALVA): 4.95 µM

IC50 [7]: 3.9 nM
Compound: O=C(c1ccc(Oc2ccccc2)cc1Cl)c1c[nH]c2ncnc(NC3CC[C@@H](CO)OC3)c12 (stereo not given in full)

IC50 [15]: 50 nM
Compound: C=CC(=O)Nc1cccc(Cn2nc(-c3ccc(Oc4ccccc4)cc3)c3c(N)ncnc32)c1
IC50 (Maver1): 2600 nM | IC50 (JeKo-1): 1300 nM | IC50 [16]: 1300 nM | IC50 (Z-138): 2800 nM
